Measured values from patent US6803191B2, “Candida albicans two-component hybrid kinase gene, CaNik1, and use thereof” (University of Iowa Research Foundation, priority 1997, dated 2004).
Marks after values point to notes of the source that are not given here.

System: homozygous deletion mutant (HH80)
Test: Growth of CaNik1 deletion mutant HH80 spot plated on agar plates with supplements (osmotic agents, inhibitors, carbon sources)
Type: cell-based, Candida albicans
Details: for Differential sensitivity: growth of mutant strain HH80 versus control strains CAI8 and CAI8U5: agar with modified Lee's medium plus ingredient, 25° C. and 37° C., three independent experiments; for Phenotypic effect in HH80: growth on agar plates: Lee's modified medium or YPD, 2 or 3 days at 25° C. and 37° C.
Protocol: Finally, growth of the CaNik1 deletion mutant HH80 was tested at 25° C. and 37° C. for differential sensitivity to osmotic strength and a variety of inhibitors.

Row | Molecule | Differential sensitivity: growth of mutant strain HH80 versus control strains CAI8 and CAI8U5 | further results
1 | Cn1c(=O)c2c(ncn2C)n(C)c1=O [Caffeine] | no qualitative differences | 
2 | [Cl-].[K+] [KCl] | no qualitative differences | Phenotypic effect in HH80: growth on agar plates (1 M KCl): ++
3 | O=S(=O)([O-])c1cc(Nc2nc(Nc3ccccc3)nc(N(CCO)CCO)n2)ccc1/C=C/c1ccc(Nc2nc(Nc3ccccc3)nc(N(CCO)CCO)n2)cc1S(=O)(=O)[O-].[Na+].[Na+] [Calcofluor] | no qualitative differences | Phenotypic effect in HH80: growth on agar plates (Calcofluor 20-40 μg/mL): +++^v
4 | [Cl-].[Na+] [NaCl] | no qualitative differences | Phenotypic effect in HH80: growth on agar plates (1 M NaCl): ++; Phenotypic effect in HH80: growth on agar plates (1.5 M NaCl): +
5 | OC[C@@H](O)[C@H](O)[C@@H](O)CO [Xylitol] |  | Phenotypic effect in HH80: growth on agar plates (1 M Xylitol): ++++
6 | O=S(=O)([O-])[O-].[Mg+2] [MgSO4] | no qualitative differences | Phenotypic effect in HH80: growth on agar plates (0.5 m MgSO4): ++
7 | OC[C@@H](O)[C@@H](O)[C@H](O)[C@@H](O)CO [Sorbitol] | no qualitative differences | Phenotypic effect in HH80: growth on agar plates (1.2 M Sorbitol): ++++
8 | polymyxin B | no qualitative differences | 
